Target: T1, histamine H4 receptor (Homo sapiens, UniProt Q9H3N8)
T1 construct: expressed in transfected cells; host or cells: CHO cells
Experiment: H4 binding, method 1 ([3H]-histamine filtration binding on CHO cell membranes)
Details: for Ki: H4 binding, method 1, Ki calculated from IC50 (Cheng-Prussoff); for inhibition at 20 µM / inhibition at 10 µM: 1.5 h; for Method 1, activity at top dose (10 μM): top dose 10 μM
Protocol: Cell pellets from CHO cells expressing the histamine H4 receptor were homogenised in ice-cold 50 mM Tris-HCl/0.5 mM CaCl2 buffer containing a protease inhibitor cocktail (Roche®, United Kingdom) using a ground glass homogeniser. Homogenates were centrifuged at 48000 g for 30 min at 4° C. The membrane pellet was resuspended in fresh buffer and the centrifugation step was repeated as described above. The membrane pellet was resuspended in 50 mM Tris-HCl in the same volume as the original cell pellet. Aliquots of membrane preparations were stored at −80° C. and were used for [^3H]-Histamine binding experiments.
Cell membranes (20-35 μg/well) were incubated for 90 minutes shaking at room temperature with 3 nM [2,5-^3H]Histamine dihydrochloride (30-60 Ci/mmol) in 50 mM Tris-HCl (pH 7.4), with or without competing H4 ligands. The reaction was terminated by rapid filtration through 0.5% polyethylenimine-soaked Unifilter GF/B plates (Packard) followed by three washes with 1 ml ice-cold 50 mM Tris-HCl. Filters were dried for 45 min at 45° C. and bound radiolabel was determined using scintillation counting techniques. Non-specific binding was defined with 10 μM JNJ7777120.

Ki [nM]	SMILES	other results
705	CCNc1cc(N2CCC(C)(N)C2)nc(N)n1 (stereo not drawn) [Example 265, 6-(3-Amino-3-methylpyrrolidin-1-yl)-N^4-ethylpyrimidine-2,4-diamine]	
1550	c1ccc(CNc2cc(N[C@H]3CCNC3)ncn2)cc1 [Example 281, N-Benzyl-N′-[(3S)-pyrrolidin-3-yl]pyrimidine-4,6-diamine]	
	CN[C@@H]1CCN(c2cc(NCc3ccc(F)cc3F)nc(N)n2)C1 [Example 325, N^4-(2,4-Difluorobenzyl)-6-[(3R)-3-(methylamino)pyrrolidin-1-yl]pyrimidine-2,4-diamine]	inhibition at 20 µM: 43%
626	CNC1CN(c2cc(N3CCOC[C@H]3C)nc(N)n2)C1 [Example 263, 4-[3-(Methylamino)azetidin-1-yl]-6-[(3R)-3-methylmorpholiN^4-yl]pyrimidin-2-amine]	
	CN[C@@H]1CCN(c2ncnc(NCC(C)(C)C)c2C)C1 [Example 326, N-(2,2-Dimethylpropyl)-5-methyl-6-[(3R)-3-(methylamino)pyrrolidin-1-yl]pyrimidin-4-amine]	inhibition at 20 µM: 48%
	CN(C)C1[C@H]2CN(c3cc(NCCC(C)(C)C)ncn3)C[C@@H]12 (stereo partly drawn) [Example 300, (1R*,5S*,6s*)-3-{6-[(3,3-Dimethylbutyl)amino]pyrimidin-4-yl}-N,N-dimethyl-3-azabicyclo[3.1.0]hexan-6-amine]	Method 1, % at 10 μM (at 10 μM): 35% at 10 μM
	C[C@@H]1CN(c2cc(NCC3CC3)nc(N)n2)CCN1 [Example 310, N^4-(Cyclopropylmethyl)-6-[(3R)-3-methylpiperazin-1-yl]pyrim idine-2,4-diamine]	Method 1, activity at top dose (10 μM): No activity at top
939	CC(C)(C)CCNc1cc(N[C@@H]2CCNC2)ncn1 [Example 7, N-(3.3-Dimethylbutyl)-N′-[(3R)-pyrrolidin-3-yl]pyrimidine-4,6-diamine]	
30.4	CNC1CN(c2cc(NCc3ccc(F)c(F)c3)nc(N)n2)C1 [Example 233, N^4-(3,4-Difluorobenzyl)-6-[3-(methylamino)azetidin-1-yl]pyrimidine-2,4-diamine]	
57.3	Nc1nc(NCC2CC2)cc(N2CC[C@@H](N)C2)n1 [Example 215, 6-[(3R)-3-Aminopyrrolidin-1-yl]-N^4-(cyclopropylmethyl)pyrimidine-2,4-diamine]	
11.5	CCC(C)Nc1cc(N2CC(NC)C2)ncn1 (stereo not drawn) [Example 153, N-(sec-Butyl)-6-[3-(methylamino)azetidin-1-yl]pyrimidin-4-amine]	
	CNC1(C)CN(c2cc(NCCC(C)(C)C)nc(N)n2)C1 [Example 298, N^4-(3,3-Dimethylbutyl)-6-[3-methyl-3-(methylamino)azetidin-1-yl]pyrimidine-2,4-diamine]	Method 1, activity at top dose (10 μM): No activity at top
16.8	CN(C)CCNc1cc(NCC(C)(C)C)nc(N)n1 [Example 144, N^4-[2-(Dimethylamino)ethyl]-N^6-(2,2-dimethylpropyl)pyrimidine-2,4,6-triamine]	
	CN1CCN(c2cc(NC(C)(C)C)nc(N)n2)CC1 [Example 223, N^4-(tert-Butyl)-6-(4-methylpiperazin-1-yl)pyrimidine-2,4-diamine]	inhibition at 10 µM: 13%
	CCCNc1cc(N2CCN[C@H](C)C2)ncn1 [Example 313, 6-[(3R)-3-Methylpiperazin-1-yl]-N-propylpyrimidin-4-amine]	inhibition at 20 µM: 70%
	Cn1ccnc1CN1CCN(c2cc(NCCC(C)(C)C)ncn2)CC1 [Example 299, N-(3,3-Dimethylbutyl)-6-{4-[(1-methyl-1H-imidazol-2-yl)methyl]piperazin-1-yl}pyrimidin-4-amine]	Method 1, activity at top dose (10 μM): No activity at top
870	CN[C@@H]1CCN(c2cc(NCc3c(F)cccc3F)nc(N)n2)C1 [Example 271, N^4-(2,6-Difluorobenzyl)-6-[(3R)-3-(methylamino)pyrrolidin-1-yl]pyrimidine-2,4-diamine]	
3300	CN1CC[C@H](Nc2cc(NCCC(C)(C)C)ncn2)C1 [Example 296, N-(3,3-Dimethylbutyl)-N′-[(3S)-1-methylpyrrolidin-3-yl]pyrimidine-4,6-diamine]	

Ki [nM]	SMILES	other results
617	CNC1(C)CN(c2cc(NC(C)C)ncn2)C1 [Example 261, N-Isopropyl-6-[3-methyl-3-(methylamino)azetidin-1-yl]pyrimidin-4-amine]	
0.653	CC(C)CNc1cc(N2CCCNCC2)nc(N)n1 [Example 133, 6-(1,4-Diazepan-1-yl)-N^4-isobutylpyrimidine-2,4-diamine]	
39	CN[C@H]1CCN(c2cc(NCC3CC3)nc(N)n2)C1 [Example 204, N^4-(Cyclopropylmethyl)-6-[(3S)-3-(methylamino)pyrrolidin-1-yl]pyrimidine-2,4-diamine]	
16.9	CC[C@@H](C)Nc1cc(N2CC[C@@H](NC)C2)nc(N)n1 [Example 152, 6-[(3R)-3-(Methylamino)pyrrolidin-1-yl]-N^4-[(1R)-1-methylpropyl]pyrimidine-2,4-diamine]	
198	CN[C@@H]1CCN(c2cc(NCCC(F)(F)F)nc(N)n2)C1 [Example 235, 6-[(3R)-3-(Methylamino)pyrrolidin-1-yl]-N^4-(3,3,3-trifluoropropyl)pyrimidine-2,4-diamine]	
	CNc1cc(N2CCCC(NC)C2)nc(N)n1 (stereo not drawn) [Example 321, N^4-Methyl-6-[3-(methylamino)piperidin-1-yl]pyrimidine-2,4-diamine]	inhibition at 20 µM: 15%
15.1	CN(C)CCNc1cc(NCC2CC2)nc(N)n1 [Example 176, N^4-(Cyclopropylmethyl)-N6-[2-(dimethylamino)ethyl]pyrimidine-2,4,6-triamine]	
127	CC(C)CNc1cc(N2CCC(N)CC2)nc(N)n1 [Example 229, 6-(4-Aminopiperidin-1-yl)-N^4-isobutylpyrimidine-2,4-diamine]	
8.55	CCNc1cc(N2CC(N)C2)nc(N)n1 [Example 170, 6-(3-Aminoazetidin-1-yl)-N^4-ethylpyrimidine-2,4-diamine]	
1660	CN[C@@H]1CCN(c2cc(N3CCOCC3)nc(N)n2)C1 [Example 282, 4-[(3R)-3-(Methylamino)pyrrolidin-1-yl]-6-morpholin-4-ylpyrimidin-2-amine]	
101	CN1CCCN(c2cc(NC3CC3)ncn2)CC1 [Example 224, N-Cyclopropyl-6-(4-methyl-1,4-diazepan-1-yl)pyrimidin-4-amine]	
4.15	CN[C@@H]1CCN(c2cc(NC3CC3C)nc(N)n2)C1 (stereo partly drawn) [Example 134, 6-[(3R)-3-(Methylamino)pyrrolidin-1-yl]-N^4-(2-methylcyclopropyl)pyrimidine-2,4-diamine]	
1430	CC(C)(C)CCNc1cc(N2CCCNCC2)ncn1 [Example 280, 6-(1,4-Diazepan-1-yl)-N-(3,3-dimethylbutyl)pyrimidin-4-amine]	
501	CN[C@@H]1CCN(c2cc(NC3CC3)nc(N)n2)C1 [Example 256, N^4-Cyclopropyl-6-[(3R)-3-(methylamino)pyrrolidin-1-yl]pyrimidine-2,4-diamine]	
	CC(C)(C)CCNc1cc(N2CCN(CCO)CC2)ncn1 [Example 307, 2-(4-{6-[(3,3-Dimethylbutyl)amino]pyrimidin-4-yl}piperazin-1-yl)ethanol]	inhibition at 10 µM: 24%
1.07	CNC1CN(c2cc(NC3CCC3)nc(N)n2)C1 [Example 75, N^4-Cyclobutyl-6-[3-(methylamino)azetidin-1-yl]pyrimidine-2,4-diamine]	
115	CNCC1CN(c2cc(NCC3CC3)nc(N)n2)C1 [Example 227, N^4-(Cyclopropylmethyl)-6-{3-[(methylamino)methyl]azetidin-1-yl}pyrimidine-2,4-diamine]	
	Nc1nc(NCc2cc(F)ccc2F)cc(N2CC[C@@H](N)C2)n1 [Example 311, 6-[(3R)-3-Aminopyrrolidin-1-yl]-N^4-(2,5-difluorobenzyl)pyrimidine-2,4-diamine]	inhibition at 20 µM: 80%

SMILES	Ki [nM]	other results
Nc1nc(NC2CC2)cc(N2CCC3NCCC3C2)n1 (stereo not drawn) [Example 172, N^4-Cycopropyl-6-[(3aR*,7aS*)-octahydro-5H-pyrrolo[3,2-c]pyridin-5-yl]pyrimidine-2,4-diamine]	9.3	
CC(C)Nc1cc(N2CC[C@@H]3NCC[C@@H]3C2)nc(N)n1 (racemic) [Example 137, N^4-Isopropyl-6-[(3aR*,7aS*)-octahydro-5H-pyrrolo[3,2-c]pyridin-5-yl]pyrimidine-2,4-diamine]	8.25	
C[C@H]1CN(c2cc(NC3CC3)ncn2)CCN1 [Example 252, N-Cyclopropyl-6-[(3S)-3-methylpiperazin-1-yl]pyrimidin-4-amine]	370	
CC(C)(C)CNc1cc(N2CC[C@@H]3NCC[C@@H]3C2)nc(N)n1 (racemic) [Example 162, N^4-(2,2-Dimethylpropyl)-6-[(3aR*,7aS*)-octahydro-5H-pyrrolo[3,2-c]pyridin-5-yl]pyrimidine-2,4-diamine]	2.91	
Nc1nc(NC2CCC2)cc(N2C[C@@H]3CCCN[C@@H]3C2)n1 [Example 178, N^4-Cyclobutyl-6-[(4aS,7aS)-octahydro-6H-pyrrolo[3,4-b]pyridin-6-yl]pyrimidine-2,4-diamine]	16.1	
CC(C)CNc1cc(N2C[C@H]3CNC[C@H]3C2)nc(N)n1 [Example 217, 6-[(3aR*,6aS*)-Hexahydropyrrolo[3,4-c]pyrrol-2(1H)-yl]-N^4-isobutylpyrimidine-2,4-diamine]	80.6	
